Laboratory results published in US20250127787A1, “METHODS FOR TREATING PERIPHERAL NEUROPATHY” (University of Pittsburgh - Of the Commonwealth System of …, priority 2021, published 2025).
Entries after “also recorded” stand apart in the source; their conditions may differ.

Test system: protein carbonylation
Assay: Protein carbonylation in PAC-CIPN rat epidermis
Assay type: in vivo
Conditions: 8-AG 5 mg/kg/day in drinking water
Procedure: Animals: This study employed female Harlan Sprague Dawley (HSD) rats (3-4 mo; Envigo, Indianapolis, IN) and were divided into the following groups: 1) Control, 2) Cyclophosphamide (CYP, 75 mg/kg i.p. in saline vehicle; administered on days 0, 3 and 6 until sacrifice on day 8); 4) Paclitaxel (2 mg/kg i.p., 2 mg/kg i.p. in saline from a stock solution of 50/50 CremophorEL/ethanol); administered on days 0, 2, 4 and 6 until sacrifice on day 8; 4) 8-aminoguanine (8-AG; 5 mg/kg/day in drinking water; beginning 2 weeks prior to either CYP or PAC and continuing until sacrifice (day 8)). The dose of 8-AG was based on the experiments described above. […] All tissues (spinal cord and hindpaw epidermis) were removed from isoflurane anesthetized rats and the tissue was used for various experimental approaches as described below. At the end of tissue removal, animals were sacrificed by thoracotomy. […]

## Nc1nc2[nH]c(N)nc2c(=O)[nH]1 [8-AG, 8-Aminoguanine]
  effect on PAC-induced protein carbonylation: restored values to that of a control state; also recorded: significantly reduced
